Results: patent US20120283228A1, “2alpha-Methyl and 2beta-Methyl Analogs of 19,26-Dinor-1alpha,25-Dihydroxyvitamin D3 and Their Uses” (WISCONSIN ALUMNI RESEARCH FOUNDATION, priority 2011, published 2012)
Entries after “also recorded” stand apart in the source; their conditions may differ. Read-outs that look alike come from different tables or passages of the source.

Assays:
vitamin D-deficient rats [1] = experiment: Bone calcium mobilization (serum calcium); assay type: in vivo, Sprague-Dawley rats; conditions: rats on low calcium diet (0.02%); for mobilization of bone calcium at 21,060 pmol/day: 21,060 pmol/day for 4 consecutive days; for activity in mobilizing calcium from bone / serum calcium levels: all dosages tested; for times less potent than 1,25(OH)2D3 in bone (bone calcium mobilization): 4 ip doses; for mobilization of bone calcium at 7,020 pmol/day: 7,020 pmol/day for 4 consecutive days; for mobilization of bone calcium at 35,100 pmol/day: 35,100 pmol/day for 4 consecutive days
Method: (§1) Male, weanling Sprague-Dawley rats were placed on Diet 11 (0.47% Ca) diet +AEK for one week followed by Diet 11 (0.02% Ca) +AEK for 3 weeks. The rats were then switched to a diet containing 0.47% Ca for one week followed by two, weeks on a diet containing 0.02% Ca. Dose administration began during the last week on 0.02% calcium diet. Four consecutive ip doses were given approximately 24 hours apart. Twenty-four hours after the last dose, blood was collected from the severed neck and the concentration of serum calcium determined as a measure of bone calcium mobilization. The first 10 cm of the intestine was also collected for intestinal calcium transport analysis using the everted gut sac method.

[2] = tested on: Human promyelocytic leukemia (HL60) cells; experiment: HL-60 differentiation (nitro blue tetrazolium reduction); assay type: cell-based; conditions: for EC50: HL-60 cells, read-out: EC50, ability to promote HL-60 cell differentiation
Method: Serial dilutions were prepared so that a range of drug concentrations could be tested without changing the final concentration of ethanol (≦0.2%) present in the cell cultures.
Human promyelocytic leukemia (HL60) cells were grown in RPMI-1640 medium containing 10% fetal bovine serus. The cells were incubated at 37° C. in the presence of 5% CO2.
HL60 cells were plated at 1.2×10^5 cells/ml. Eighteen hours after plating, cells in duplicate were treated with drug. Four days later, the cells were harvested and a nitro blue tetrazolium reduction assay was performed (Collins et al., 1979; J. Ex. Med. 149:969-974). The percentage of differentiated cells was determined by counting a total of 200 cells and recording the number that contained intracellular black-blue formazan deposits Verification of differentiation to monocytic cells was determined by measuring phagocytic activity (data not shown).

[3] = target: T1, full-length recombinant rat vitamin D receptor (Rattus norvegicus, UniProt P13053); experiment: biochemical; conditions: ability to compete with [3H]-1,25(OH)2D3 for binding to the vitamin D receptor, full-length recombinant rat VDR
T1 sequence (P13053 1-423): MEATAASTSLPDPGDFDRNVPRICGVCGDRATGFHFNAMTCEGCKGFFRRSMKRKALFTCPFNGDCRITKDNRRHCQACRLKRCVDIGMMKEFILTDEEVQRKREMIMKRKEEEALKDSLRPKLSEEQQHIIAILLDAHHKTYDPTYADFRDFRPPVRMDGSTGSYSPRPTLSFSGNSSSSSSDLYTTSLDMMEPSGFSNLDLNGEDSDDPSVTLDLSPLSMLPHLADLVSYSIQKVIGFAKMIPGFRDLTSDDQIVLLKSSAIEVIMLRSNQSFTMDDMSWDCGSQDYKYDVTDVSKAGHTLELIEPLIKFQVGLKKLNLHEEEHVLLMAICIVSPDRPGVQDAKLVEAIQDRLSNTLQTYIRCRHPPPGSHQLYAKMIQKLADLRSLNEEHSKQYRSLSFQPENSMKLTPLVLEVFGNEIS
Method: (§2) Full-length recombinant rat receptor was expressed in E. coli BL21 (DE3) Codon Plus RIL cells and purified to homogeneity using two different column chromatography systems. The first system was a nickel affinity resin that utilizes the C-terminal histidine tag on this protein. The protein that was eluted from this resin was further purified using ion exchange chromatography (S-Sepharose Fast Flow). Aliquots of the purified protein were quick frozen in liquid nitrogen and stored at −80° C. until use. For use in binding assays, the protein was diluted in TEDK50 (50 mM Tris, 1.5 mM EDTA, pH 7.4, 5 mM DTT, 150 mM KCl) with 0.1% Chaps detergent. The receptor protein and ligand concentration was optimized such that no more than 20% of the added radiolabeled ligand as bound to the receptor.
(§3) Radiolabeled and unlabeled ligands were added to 100 mcl of the diluted protein at a final ethanol concentration of ≦10%; mixed and incubated overnight on ice to reach binding equilibrium. The following day, 100 mcl of hydroxylapaptite slurry (50%) was added to each tube and mixed at 10-minute intervals for 30 minutes. The hydroxylapaptite was collected by centrifugation and then washed three times with Tris-EDTA buffer (50 mM Tris, 1.5 mM EDTA, pH 7.4) containing 0.5% Titron X-100. After the final wash, the pellets were transferred to scintillation vials containing 4 ml of Biosafe II scintillation cocktail, mixed and placed in a scintillation counter. Total binding was determined from the tubes containing only radiolabeled ligand.

vitamin D-deficient rats [4] = experiment: Intestinal calcium transport (everted gut sac method); assay type: in vivo, Sprague-Dawley rats; conditions: for intestinal calcium transport activity / times less potent than 1,25(OH)2D3 in stimulating calcium transport in the gut / logs less potent than 1,25(OH)2D3 in the intestine: rats on low calcium diet (0.02%); for times less potent than 1,25(OH)2D3 in stimulating calcium transport in the gut / logs less potent than 1,25(OH)2D3 in the intestine: 4 ip doses
Method: as §1

[5] = tested on: 24-hydroxylase (24Ohase) gene promoter; experiment: In vitro transcription assay in ROS 17/2.8 (bone) cells, luciferase reporter; assay type: cell-based; conditions: for EC50: ROS 17/2.8 cells, 24-hydroxylase promoter-luciferase, read-out: EC50, transcriptional activity in bone cells; for logs less transcriptional activity than 1α,25-dihydroxyvitamin D3 in bone cells / times less transcriptional activity than 1α,25-dihydroxyvitamin D3 in bone cells: less than 1,25(OH)2D3; for times more transcriptional activity than 1α,25-dihydroxyvitamin D3 in bone cells: more than 1,25(OH)2D3
Method: Transcription activity was measured in ROS 17/2.8 (bone) cells that were stably transfected with a 24-hydroxylase (24Ohase) gene promoter upstream of a luciferase reporter gene (Arbour et al., 1998). Cells were given a range of doses. Sixteen hours after dosing the cells were harvested and luciferase activities were measured using a luminometer.
RLU=relative luciferase units.

[6] = target: T1, full-length recombinant rat vitamin D receptor; conditions: for Ki: read-out: Ki, ability to compete with [3H]-1,25(OH)2D3 for binding to the vitamin D receptor, full-length recombinant rat VDR
Method: as §2, §3

[7] = compared with 1,25(OH)2D3 at 780 pmol/day

Row | SMILES | Ki [3] [nM] | activity in mobilizing calcium from bone / serum calcium levels (vitamin D-deficient rats [1]) | times less potent than 1,25(OH)2D3 in bone (bone calcium mobilization) (vitamin D-deficient rats [1]) | EC50 [2] [nM] | EC50 [5] [nM] | logs less transcriptional activity than 1α,25-dihydroxyvitamin D3 in bone cells [5] | times less transcriptional activity than 1α,25-dihydroxyvitamin D3 in bone cells [5] | binding to the receptor as compared to 1,25(OH)2D3 [6] | mobilization of bone calcium at 7,020 pmol/day (vitamin D-deficient rats [1]) | intestinal calcium transport at 7,020 pmol/day (vitamin D-deficient rats [4]; [7]) | mobilization of bone calcium at 35,100 pmol/day (vitamin D-deficient rats [1]) | intestinal calcium transport at 35,100 pmol/day (vitamin D-deficient rats [4]; [7]) | Ki [6] [nM] | other results
1 | CC(O)CCCC(C)C1CCC2C(=CC=C3CC(O)C(C)C(O)C3)CCCC21C (single isomer, unassigned) [FD-1] | 0.4 | little, if any, activity | more than 40 times | 6 | 1 | about 1 log | about 10 times |  |  |  |  |  |  | mobilization of bone calcium at 21,060 pmol/day (vitamin D-deficient rats [1]): did not result in mobilization of bone calcium; intestinal calcium transport at 21,060 pmol/day (vitamin D-deficient rats [4]; 21,060 pmol/day for 4 consecutive days, compared with 1,25(OH)2D3 at 780 pmol/day): some intestinal calcium transport, but hot to the same extent as 1,25(OH)2D3; intestinal calcium transport activity (vitamin D-deficient rats [4]): some, but very little, intestinal calcium transport activity; times less potent than 1,25(OH)2D3 in stimulating calcium transport in the gut (vitamin D-deficient rats [4]): approximately 40 times
2 | CC(O)CCCC(C)C1CCC2C(=CC=C3CC(O)C(C)C(O)C3)CCCC21C (single isomer, unassigned) [TA-2] |  | little, if any, activity | more than 50 times | 0.5 | 0.08 |  |  | bound equally well; also recorded: equivalent | did not result in mobilization of bone calcium | some intestinal calcium transport activity, but still not to the same extent as 1,25(OH)2D3 | without any substantial effect |  |  | logs less potent than 1,25(OH)2D3 in the intestine (vitamin D-deficient rats [4]): approximately 1 log and one; times more transcriptional activity than 1α,25-dihydroxyvitamin D3 in bone cells [5]: about 4 times
3 | C=C1/C(=C\C=C2/CCC[C@]3(C)[C@@H]([C@H](C)CCCC(C)(C)O)CC[C@@H]23)C[C@@H](O)C[C@@H]1O [1,25(OH)2D3, 1α,25-dihydroxyvitamin D3, reference compound] |  | increased serum calcium levels |  | 2 | 0.2 |  |  |  |  |  |  |  |  | intestinal calcium transport activity (vitamin D-deficient rats [4]): significant activity
4 | CC1[C@H](O)CC(=C/C=C2\CCC[C@]3(C)[C@@H]([C@H](C)CCC[C@@H](C)O)CC[C@@H]23)C[C@H]1O (stereo partly drawn) [DW-1, (20R,25R)-2β-methyl-19,26-dinor-1α,25-dihydroxyvitamin D3] |  | little, if any, activity | more than 50 times | 60 | 20 | about 2 log | ~20 times |  | did not result in mobilization of bone calcium |  | without any substantial effect | some intestinal calcium transport activity, but still not to the same extent as 1,25(OH)2D3 | 1 | times less potent than 1,25(OH)2D3 on HL-60 differentiation [2]: about 30 times
5 | CC1[C@H](O)CC(=C/C=C2\CCC[C@]3(C)[C@@H]([C@@H](C)CCC[C@H](C)O)CC[C@@H]23)C[C@H]1O (stereo partly drawn) [IB-1, (20S,25S)-2β-methyl-19,26-dinor-1α,25-dihydroxyvitamin D3] |  | little, if any, activity | more than 50 times | 20 | 7 | about 3 log | approximately 30 times |  |  |  | did not result in mobilization of bone calcium | some intestinal calcium transport activity; but still not to the same extent as 1,25(OH)2D3 | 0.8 | logs less potent than 1,25(OH)2D3 on HL-60 differentiation [2]: one and about one; times less potent than 1,25(OH)2D3 on HL-60 differentiation [2]: 10 times
6 | CC1[C@H](O)CC(=C/C=C2\CCC[C@]3(C)[C@@H]([C@H](C)CCC[C@@H](C)O)CC[C@@H]23)C[C@H]1O (stereo partly drawn) [MY-2, (20R,25R)-2α-methyl-19,26-dinor-1α,25-dihydroxyvitamin D3] |  | little, if any, activity | more than 50 times | 2 | 0.4 |  |  | bound equally well; also recorded: equivalent | did not result in mobilization of bone calcium | some intestinal calcium transport activity, but still not to the same extent as 1,25(OH)2D3 | without any substantial effect |  | 0.2 | HL-60 differentiation potency as compared to 1,25(OH)2D3 [2]: as potent as 1,25(OH)2D3; also recorded: little difference; transcriptional activity in bone cells as compared to 1α,25-dihydroxyvitamin D3 [5]: equivalent to 1α,25-dihydroxyvitamin D3; also recorded: about the same transcriptional activity

Further lines, with some results ahead:

Row | Ki [3] [nM] | SMILES | activity in mobilizing calcium from bone / serum calcium levels (vitamin D-deficient rats [1]) | times less potent than 1,25(OH)2D3 in bone (bone calcium mobilization) (vitamin D-deficient rats [1]) | EC50 [2] [nM] | EC50 [5] [nM] | logs less transcriptional activity than 1α,25-dihydroxyvitamin D3 in bone cells [5] | times less transcriptional activity than 1α,25-dihydroxyvitamin D3 in bone cells [5] | binding to the receptor as compared to 1,25(OH)2D3 [6] | mobilization of bone calcium at 7,020 pmol/day (vitamin D-deficient rats [1]) | intestinal calcium transport at 7,020 pmol/day (vitamin D-deficient rats [4]; [7]) | mobilization of bone calcium at 35,100 pmol/day (vitamin D-deficient rats [1]) | intestinal calcium transport at 35,100 pmol/day (vitamin D-deficient rats [4]; [7]) | Ki [6] [nM] | other results
7 | 0.08 | CC(O)CCCC(C)C1CCC2C(=CC=C3CC(O)C(C)C(O)C3)CCCC21C (single isomer, unassigned) [LR-2] | little, if any, activity | more than 30 times | 0.1 |  |  |  | bound equally well; also recorded: equivalent | did not result in mobilization of bone calcium | some intestinal calcium transport activity, but still not to the same extent as 1,25(OH)2D3 |  |  |  | mobilization of bone calcium at 21,060 pmol/day (vitamin D-deficient rats [1]): without any substantial effect; times more potent than 1,25(OH)2D3 on HL-60 differentiation ([2]; more potent than 1,25(OH)2D3): 10 times; logs less potent than 1,25(OH)2D3 in the intestine (vitamin D-deficient rats [4]): approximately one and one; times less potent than 1,25(OH)2D3 in stimulating calcium transport in the gut (vitamin D-deficient rats [4]): about 10 times; times more transcriptional activity than 1α,25-dihydroxyvitamin D3 in bone cells [5]: 10 times
8 | 5 | CC(O)CCCC(C)C1CCC2C(=CC=C3CC(O)C(C)C(O)C3)CCCC21C (single isomer, unassigned) [TH-1] | little, if any, activity | more than 50 times | 70 |  | about 2 log | ~20 times |  |  |  | did not result in mobilization of bone calcium | some intestinal calcium transport activity, but still not to the same extent as 1,25(OH)D3 |  | logs less potent than 1,25(OH)2D3 on HL-60 differentiation [2]: 3 log
